Patent US20230365553A1, “COMPOUNDS AND COMPOSITIONS FOR TREATING CONDITIONS ASSOCIATED WITH STING ACTIVITY” (IFM Due, Inc., priority 2020, published 2023)

Molecular target: T1, STING (Homo sapiens, UniProt Q86WV6, G230A/H232R/R293Q/R71H)
T1 construct: host or cells: THP1-Dual KO-IFNAR2 cells
Assay: STING reporter assay: luciferase reporter activity in THP1-Dual KO-IFNAR2 cells stimulated with 2′3′cGAMP
Assay type: cell-based
Settings: 15 μM 2′3′cGAMP, 24h, read-out: hSTING EC50
Procedure, shortened: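 THP1-Dual KO-IFNAR2 cells (2×10E6 cells/mL) were exposed to compounds at 0.0017-100 μM, then stimulated with 2′3′cGAMP (15 μM final) transfected via Lipofectamine 2000. After 24h at 37° C., secreted luciferase in supernatant was read by QUANTI-Luc luminescence; EC50 derived from concentration-response.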

T1 sequence (Q86WV6 whole entry R71H/G230A/H232R/R293Q): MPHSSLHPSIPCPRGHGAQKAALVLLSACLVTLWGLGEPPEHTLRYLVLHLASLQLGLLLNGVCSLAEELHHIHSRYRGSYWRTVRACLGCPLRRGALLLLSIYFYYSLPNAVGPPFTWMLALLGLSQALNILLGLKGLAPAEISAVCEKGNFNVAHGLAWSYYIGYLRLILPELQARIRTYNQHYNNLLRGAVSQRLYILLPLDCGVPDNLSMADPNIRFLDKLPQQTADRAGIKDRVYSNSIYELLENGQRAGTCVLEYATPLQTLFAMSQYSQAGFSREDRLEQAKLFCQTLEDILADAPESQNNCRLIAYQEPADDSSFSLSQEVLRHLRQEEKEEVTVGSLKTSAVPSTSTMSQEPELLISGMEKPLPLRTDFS

EC50	Compound
1000 to 5000 nM	O=C1CC(C(=O)Nc2c[nH]c3ccc(-c4cnn(-c5ccc(C(F)(F)F)cc5)c4)cc23)CCN1 (stereo not drawn) [Compound 219, 2-oxo-N-(5-(1-(4-(trifluoromethyl)phenyl)-1H-pyrazol-4-yl)-1H-indol-3-yl)piperidine-4-carboxamide]
5000 to 100000 nM	N#CC1(C(=O)Nc2c[nH]c3ccc(-c4cnn(-c5ccc(C(F)(F)F)cc5)c4)cc23)CCOCC1 [Compound 220, 4-cyano-N-(5-(1-(4-(trifluoromethyl)phenyl)-1H-pyrazol-4-yl)-1H-indol-3-yl)tetrahydro-2H-pyran-4-carboxamide]
1000 to 5000 nM	O=C1CCC[C@@H](C(=O)Nc2c[nH]c3ccc(-c4cnn(-c5ccc(C(F)(F)F)cc5)c4)cc23)N1 [Compound 221, (S)-6-oxo-N-(5-(1-(4-(trifluoromethyl)phenyl)-1H-pyrazol-4-yl)-1H-indol-3-yl)piperidine-2-carboxamide]
1000 to 5000 nM	CC1(C(=O)Nc2c[nH]c3ccc(-c4cnn(-c5ccc(C(F)(F)F)cc5)c4)cc23)CCOCC1 [Compound 222, 4-methyl-N-(5-(1-(4-(trifluoromethyl)phenyl)-1H-pyrazol-4-yl)-1H-indol-3-yl)tetrahydro-2H-pyran-4-carboxamide]
1000 to 5000 nM	CC(=O)N1CC(C(=O)Nc2c[nH]c3ccc(-c4cnn(-c5ccc(C(F)(F)F)cc5)c4)cc23)C1 [Compound 223, 1-acetyl-N-(5-(1-(4-(trifluoromethyl)phenyl)-1H-pyrazol-4-yl)-1H-indol-3-yl)azetidine-3-carboxamide]
1000 to 5000 nM	CN1CC(C(=O)Nc2c[nH]c3ccc(-c4cnn(-c5ccc(C(F)(F)F)cc5)c4)cc23)CCC1=O (stereo not drawn) [Compound 224, 1-methyl-6-oxo-N-(5-(1-(4-(trifluoromethyl)phenyl)-1H-pyrazol-4-yl)-1H-indol-3-yl)piperidine-3-carboxamide]
1000 to 5000 nM	CC(=O)N(C)CC(=O)Nc1c[nH]c2ccc(-c3cnn(-c4ccc(C(F)(F)F)cc4)c3)cc12 [Compound 225, N-methyl-N-(2-oxo-2-((5-(1-(4-(trifluoromethyl)phenyl)-1H-pyrazol-4-yl)-1H-indol-3-yl)amino)ethyl)acetamide]
1000 to 5000 nM	CC(=O)N1CCCC1C(=O)Nc1c[nH]c2ccc(-c3cnn(-c4ccc(C(F)(F)F)cc4)c3)cc12 (stereo not drawn) [Compound 226, 1-acetyl-N-(5-(1-(4-(trifluoromethyl)phenyl)-1H-pyrazol-4-yl)-1H-indol-3-yl)pyrrolidine-2-carboxamide]
1000 to 5000 nM	COC(C)C(=O)Nc1c[nH]c2ccc(-c3cnn(-c4ccc(C(F)(F)F)cc4)c3)cc12 (stereo not drawn) [Compound 227, 2-methoxy-N-(5-(1-(4-(trifluoromethyl)phenyl)-1H-pyrazol-4-yl)-1H-indol-3-yl)propanamide]
1000 to 5000 nM	CC(C)(C#N)C(=O)Nc1c[nH]c2ccc(-c3cnn(-c4ccc(C(F)(F)F)cc4)c3)cc12 [Compound 228, 2-cyano-2-methyl-N-(5-(1-(4-(trifluoromethyl)phenyl)-1H-pyrazol-4-yl)-1H-indol-3-yl)propanamide]
1000 to 5000 nM	N#CC1(C(=O)Nc2c[nH]c3ccc(-c4cnn(-c5ccc(C(F)(F)F)cc5)c4)cc23)CCC1 [Compound 229, 1-cyano-N-(5-(1-(4-(trifluoromethyl)phenyl)-1H-pyrazol-4-yl)-1H-indol-3-yl)cyclobutane-1-carboxamide]
5000 to 100000 nM	CC1=NOC(C)(C(=O)Nc2c[nH]c3ccc(-c4cnn(-c5ccc(C(F)(F)F)cc5)c4)cc23)C1 (stereo not drawn) [Compound 230, 3,5-dimethyl-N-(5-(1-(4-(trifluoromethyl)phenyl)-1H-pyrazol-4-yl)-1H-indol-3-yl)-4,5-dihydroisoxazole-5-carboxamide]

The remaining lines, values behind:

Compound	EC50
CC(C)(O)C(=O)Nc1c[nH]c2ccc(-c3cnn(-c4ccc(C(F)(F)F)cc4)c3)cc12 [Compound 198, 2-hydroxy-2-methyl-N-(5-(1-(4-(trifluoromethyl)phenyl)-1H-pyrazol-4-yl)-1H-indol-3-yl)propanamide]	1000 to 5000 nM
COCC1(C(=O)Nc2c[nH]c3ccc(-c4cnn(-c5ccc(C(F)(F)F)cc5)c4)cc23)CCC1 [Compound 199, 1-(methoxymethyl)-N-(5-(1-(4-(trifluoromethyl)phenyl)-1H-pyrazol-4-yl)-1H-indol-3-yl)cyclobutane-1-carboxamide]	1000 to 5000 nM
CCC(C)(O)C(=O)Nc1c[nH]c2ccc(-c3cnn(-c4ccc(C(F)(F)F)cc4)c3)cc12 (stereo not drawn) [Compound 200, 2-hydroxy-2-methyl-N-(5-(1-(4-(trifluoromethyl)phenyl)-1H-pyrazol-4-yl)-1H-indol-3-yl)butanamide]	1000 to 5000 nM
CC(C)(CO)C(=O)Nc1c[nH]c2ccc(-c3cnn(-c4ccc(C(F)(F)F)cc4)c3)cc12 [Compound 201, 3-hydroxy-2,2-dimethyl-N-(5-(1-(4-(trifluoromethyl)phenyl)-1H-pyrazol-4-yl)-1H-indol-3-yl)propanamide]	1000 to 5000 nM
O=C(Nc1c[nH]c2ccc(-c3cnn(-c4ccc(C(F)(F)F)cc4)c3)cc12)C1(O)CCC1 [Compound 202, 1-hydroxy-N-(5-(1-(4-(trifluoromethyl)phenyl)-1H-pyrazol-4-yl)-1H-indol-3-yl)cyclobutane-1-carboxamide]	200 to 1000 nM
CC1(C(=O)Nc2c[nH]c3ccc(-c4cnn(-c5ccc(C(F)(F)F)cc5)c4)cc23)CCCO1 (stereo not drawn) [Compound 203, 2-methyl-N-(5-(1-(4-(trifluoromethyl)phenyl)-1H-pyrazol-4-yl)-1H-indol-3-yl)tetrahydrofuran-2-carboxamide]	5000 to 100000 nM
CC(C)[C@H](O)C(=O)Nc1c[nH]c2ccc(-c3cnn(-c4ccc(C(F)(F)F)cc4)c3)cc12 [Compound 204, (S)-2-hydroxy-3-methyl-N-(5-(1-(4-(trifluoromethyl)phenyl)-1H-pyrazol-4-yl)-1H-indol-3-yl)butanamide]	1000 to 5000 nM
CN1CC(C(=O)Nc2c[nH]c3ccc(-c4cnn(-c5ccc(C(F)(F)F)cc5)c4)cc23)C1=O (stereo not drawn) [Compound 205, 1-methyl-2-oxo-N-(5-(1-(4-(trifluoromethyl)phenyl)-1H-pyrazol-4-yl)-1H-indol-3-yl)azetidine-3-carboxamide]	1000 to 5000 nM
COCCOCCC(=O)Nc1c[nH]c2ccc(-c3cnn(-c4ccc(C(F)(F)F)cc4)c3)cc12 [Compound 206, 3-(2-methoxyethoxy)-N-(5-(1-(4-(trifluoromethyl)phenyl)-1H-pyrazol-4-yl)-1H-indol-3-yl)propanamide]	200 to 1000 nM
O=C(COCC(F)(F)F)Nc1c[nH]c2ccc(-c3cnn(-c4ccc(C(F)(F)F)cc4)c3)cc12 [Compound 207, 2-(2,2,2-trifluoroethoxy)-N-(5-(1-(4-(trifluoromethyl)phenyl)-1H-pyrazol-4-yl)-1H-indol-3-yl)acetamide]	200 to 1000 nM
CC(=O)NCC(C)(C)C(=O)Nc1c[nH]c2ccc(-c3cnn(-c4ccc(C(F)(F)F)cc4)c3)cc12 [Compound 208, 3-acetamido-2,2-dimethyl-N-(5-(1-(4-(trifluoromethyl)phenyl)-1H-pyrazol-4-yl)-1H-indol-3-yl)propanamide]	1000 to 5000 nM
CN1C(=O)CC[C@H]1C(=O)Nc1c[nH]c2ccc(-c3cnn(-c4ccc(C(F)(F)F)cc4)c3)cc12 [Compound 209, (S)-1-methyl-5-oxo-N-(5-(1-(4-(trifluoromethyl)phenyl)-1H-pyrazol-4-yl)-1H-indol-3-yl)pyrrolidine-2-carboxamide]	5000 to 100000 nM
O=C1NCCC1C(=O)Nc1c[nH]c2ccc(-c3cnn(-c4ccc(C(F)(F)F)cc4)c3)cc12 (stereo not drawn) [Compound 210, 2-oxo-N-(5-(1-(4-(trifluoromethyl)phenyl)-1H-pyrazol-4-yl)-1H-indol-3-yl)pyrrolidine-3-carboxamide]	5000 to 100000 nM
CN1CCC(C(=O)Nc2c[nH]c3ccc(-c4cnn(-c5ccc(C(F)(F)F)cc5)c4)cc23)C1=O (stereo not drawn) [Compound 211, 1-methyl-2-oxo-N-(5-(1-(4-(trifluoromethyl)phenyl)-1H-pyrazol-4-yl)-1H-indol-3-yl)pyrrolidine-3-carboxamide]	1000 to 5000 nM
O=C(COC(F)(F)F)Nc1c[nH]c2ccc(-c3cnn(-c4ccc(C(F)(F)F)cc4)c3)cc12 [Compound 212, 2-(trifluoromethoxy)-N-(5-(1-(4-(trifluoromethyl)phenyl)-1H-pyrazol-4-yl)-1H-indol-3-yl)acetamide]	200 to 1000 nM
O=C(Nc1c[nH]c2ccc(-c3cnn(-c4ccc(C(F)(F)F)cc4)c3)cc12)C1CS(=O)(=O)C1 [Compound 213, N-(5-(1-(4-(trifluoromethyl)phenyl)-1H-pyrazol-4-yl)-1H-indol-3-yl)thietane-3-carboxamide 1,1-dioxide]	200 to 1000 nM
O=C(CCC(F)(F)F)Nc1c[nH]c2ccc(-c3cnn(-c4ccc(C(F)(F)F)cc4)c3)cc12 [Compound 214, 4,4,4-trifluoro-N-(5-(1-(4-(trifluoromethyl)phenyl)-1H-pyrazol-4-yl)-1H-indol-3-yl)butanamide]	200 to 1000 nM
CC(=O)NC(C)C(=O)Nc1c[nH]c2ccc(-c3cnn(-c4ccc(C(F)(F)F)cc4)c3)cc12 (stereo not drawn) [Compound 215, 2-acetamido-N-(5-(1-(4-(trifluoromethyl)phenyl)-1H-pyrazol-4-yl)-1H-indol-3-yl)propanamide]	1000 to 5000 nM
CC(C)(C)C(=O)Nc1c[nH]c2ccc(-c3cnn(-c4ccc(C(F)(F)F)cc4)c3)cc12 [Compound 216, N-(5-(1-(4-(trifluoromethyl)phenyl)-1H-pyrazol-4-yl)-1H-indol-3-yl)pivalamide]	1000 to 5000 nM
COCCOCC(=O)Nc1c[nH]c2ccc(-c3cnn(-c4ccc(C(F)(F)F)cc4)c3)cc12 [Compound 217, 2-(2-methoxyethoxy)-N-(5-(1-(4-(trifluoromethyl)phenyl)-1H-pyrazol-4-yl)-1H-indol-3-yl)acetamide]	200 to 1000 nM
CC(=O)NC(C(=O)Nc1c[nH]c2ccc(-c3cnn(-c4ccc(C(F)(F)F)cc4)c3)cc12)C(C)C (stereo not drawn) [Compound 218, 2-acetamido-3-methyl-N-(5-(1-(4-(trifluoromethyl)phenyl)-1H-pyrazol-4-yl)-1H-indol-3-yl)butanamide]	1000 to 5000 nM
